{"source": "ChEMBL document CHEMBL4477208", "about": "“Discovery and Rational Design of Pteridin-7(8H)-one-Based Inhibitors Targeting FMS-like Tyrosine Kinase 3 (FLT3) and Its Mutants” (J Med Chem, 2016)", "key": {"[1]": {"assay": "Cmax in overnight fasted Sprague-Dawley rat plasma at 10 mg/kg administered via oral gavage up to 24 hrs by LC-MS/MS analysis", "format": "ADME, organism-based", "parameters": "dose 10 mg/kg, route oral"}, "MOLT-4": {"tested_on": "MOLT-4", "assay": "Antiproliferative activity against human MOLT4 cells after 72 hrs by MTT assay", "format": "functional, cell-based", "conditions": "MOLT-4, 72 h"}, "[2]": {"tested_on": "Receptor-type tyrosine-protein kinase FLT3 (Homo sapiens), P36888 [N841I]", "assay": "Inhibition of human FLT3 N841I mutant expressed in bacterial system assessed as remaining enzyme activity at 1 uM relative to untreated control"}, "MV4-11 [3]": {"tested_on": "MV4-11", "assay": "Induction of apoptosis in human MV4-11 cells assessed as necrotic cells at 10 nM after 48 hrs by annexin V/propidium iodide staining based FACS analysis (reference value: 0.05%)", "format": "functional"}, "[4]": {"biological_target": "Interleukin-1 receptor-associated kinase 1 (Homo sapiens) (UniProt P51617)", "sequence (P51617 whole entry, looked up)": "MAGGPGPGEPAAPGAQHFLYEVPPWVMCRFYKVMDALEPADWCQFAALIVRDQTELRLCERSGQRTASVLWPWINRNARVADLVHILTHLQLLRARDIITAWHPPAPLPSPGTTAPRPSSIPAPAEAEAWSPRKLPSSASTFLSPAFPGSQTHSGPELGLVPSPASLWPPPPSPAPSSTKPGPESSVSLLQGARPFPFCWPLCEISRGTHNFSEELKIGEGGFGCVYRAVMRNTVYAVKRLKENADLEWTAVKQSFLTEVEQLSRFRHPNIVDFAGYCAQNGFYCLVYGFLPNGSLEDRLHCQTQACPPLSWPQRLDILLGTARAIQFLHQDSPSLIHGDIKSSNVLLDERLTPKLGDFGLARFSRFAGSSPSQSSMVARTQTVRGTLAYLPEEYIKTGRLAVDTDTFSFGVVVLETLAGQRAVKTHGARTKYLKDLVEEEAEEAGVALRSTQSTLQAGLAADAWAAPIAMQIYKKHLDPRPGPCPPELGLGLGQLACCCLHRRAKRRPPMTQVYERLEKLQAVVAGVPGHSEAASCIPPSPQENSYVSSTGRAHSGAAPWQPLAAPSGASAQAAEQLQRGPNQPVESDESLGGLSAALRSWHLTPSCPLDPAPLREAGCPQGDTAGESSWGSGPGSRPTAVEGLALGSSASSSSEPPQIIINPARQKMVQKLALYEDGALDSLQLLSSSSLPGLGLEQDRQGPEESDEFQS", "assay": "Inhibition of human IRAK1 expressed in mammalian system assessed as remaining enzyme activity at 1 uM relative to untreated control"}, "RS4-11": {"tested_on": "RS4-11", "assay": "Antiproliferative activity against human RS4:11 cells after 72 hrs by MTT assay", "format": "functional, cell-based", "conditions": "RS4-11, 72 h"}, "[5]": {"assay": "Volume of distribution at steady state in overnight fasted Sprague-Dawley rat plasma at 1 mg/kg, iv up to 24 hrs by LC-MS/MS analysis", "format": "ADME, organism-based", "conditions": "read-out: Vdss"}, "[6]": {"biological_target": "Receptor-type tyrosine-protein kinase FLT3 (Homo sapiens, UniProt P36888, D835Y)", "assay": "Binding affinity to human partial length FLT3 D835Y mutant (580 to 969 residues) expressed in bacterial expression system after 1 hr"}, "[7]": {"assay": "Oral bioavailability in overnight fasted Sprague-Dawley rat plasma at 10 mg/kg administered via oral gavage up to 24 hrs by LC-MS/MS analysis", "format": "ADME, organism-based"}, "MV4-11 [8]": {"tested_on": "MV4-11", "assay": "Antitumor activity against human MV4-11 cells xenografted in nude BALB/c mouse assessed as induction of late stage apoptosis at 50 mg/kg, po qd measured after 1 to 3 days by TUNEL assay", "format": "functional, organism-based"}, "[9]": {"tested_on": "Receptor-type tyrosine-protein kinase FLT3 (Homo sapiens), P36888 [UNDEFINED MUTATION]", "assay": "Inhibition of human FLT3 ITD mutant expressed in bacterial system assessed as remaining enzyme activity at 1 uM relative to untreated control"}, "NCI-H146": {"tested_on": "NCI-H146", "assay": "Antiproliferative activity against human NCI-H146 cells after 72 hrs by MTT assay", "format": "functional, cell-based", "conditions": "NCI-H146, 72 h"}, "MV4-11 [10]": {"tested_on": "MV4-11", "assay": "Cell cycle arrest in human MV4-11 cells assessed as accumulation at G0/G1 phase at 10 nM after 48 hrs by PI/RNase staining based FACS analysis (reference value: 69.55%)", "format": "functional"}, "MV4-11 [11]": {"tested_on": "MV4-11", "assay": "Induction of apoptosis in human MV4-11 cells assessed as viable cells at 100 nM after 48 hrs by annexin V/propidium iodide staining based FACS analysis (reference value: 90.60%)", "format": "functional", "conditions": "MV4-11, 48 h, read-out: Activity"}, "NCI-H1975": {"tested_on": "NCI-H1975", "assay": "Antiproliferative activity against human NCI-H1975 cells after 72 hrs by SRB assay", "format": "functional, cell-based", "conditions": "NCI-H1975, 72 h"}, "MCF7": {"tested_on": "MCF7", "assay": "Antiproliferative activity against human MCF7 cells after 72 hrs by SRB assay", "format": "functional, cell-based", "conditions": "MCF7, 72 h"}, "MV4-11 [12]": {"tested_on": "MV4-11", "assay": "Antitumor activity against human MV4-11 cells xenografted in nude BALB/c mouse assessed as reduction in tumor cell proliferation by measuring Ki67 positive cells at 50 mg/kg, po qd measured after 1 to 3 days by immunohistochemical assay", "format": "functional, organism-based"}, "[13]": {"biological_target": "T1, Receptor-type tyrosine-protein kinase FLT3 (Homo sapiens, UniProt P36888)", "T1 sequence (P36888 whole entry)": "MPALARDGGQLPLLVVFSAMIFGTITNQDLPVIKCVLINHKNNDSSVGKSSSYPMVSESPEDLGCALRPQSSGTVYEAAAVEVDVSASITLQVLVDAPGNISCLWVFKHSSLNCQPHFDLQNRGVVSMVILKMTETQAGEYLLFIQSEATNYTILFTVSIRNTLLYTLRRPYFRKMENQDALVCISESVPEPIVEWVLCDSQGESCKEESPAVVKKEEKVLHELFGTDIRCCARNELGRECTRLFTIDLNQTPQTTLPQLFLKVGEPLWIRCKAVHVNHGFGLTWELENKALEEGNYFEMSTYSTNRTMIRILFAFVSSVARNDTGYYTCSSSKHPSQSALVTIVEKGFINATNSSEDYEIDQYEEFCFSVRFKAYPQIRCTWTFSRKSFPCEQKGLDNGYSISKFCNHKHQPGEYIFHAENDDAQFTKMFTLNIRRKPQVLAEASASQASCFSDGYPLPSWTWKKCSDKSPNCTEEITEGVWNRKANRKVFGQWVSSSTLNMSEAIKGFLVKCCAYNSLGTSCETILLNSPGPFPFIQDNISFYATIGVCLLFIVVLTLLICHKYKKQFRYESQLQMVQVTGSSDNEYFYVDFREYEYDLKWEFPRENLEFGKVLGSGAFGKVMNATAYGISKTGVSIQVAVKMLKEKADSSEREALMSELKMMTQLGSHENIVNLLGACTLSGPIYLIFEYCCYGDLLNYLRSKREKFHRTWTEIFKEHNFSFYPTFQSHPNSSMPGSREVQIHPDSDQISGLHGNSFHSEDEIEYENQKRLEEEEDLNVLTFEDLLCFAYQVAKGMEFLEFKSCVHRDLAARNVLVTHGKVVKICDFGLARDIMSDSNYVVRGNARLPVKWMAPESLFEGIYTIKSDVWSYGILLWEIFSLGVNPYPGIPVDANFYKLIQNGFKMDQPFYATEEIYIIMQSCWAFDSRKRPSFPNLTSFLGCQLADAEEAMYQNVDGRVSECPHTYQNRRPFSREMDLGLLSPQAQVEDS", "assay": "Binding affinity to auto-inhibited human partial length wild type FLT3 (564 to 969 residues) expressed in mammalian expression system after 1 hr"}, "MV4-11 [14]": {"tested_on": "MV4-11", "assay": "Induction of apoptosis in human MV4-11 cells assessed as dead cells after 48 hrs by annexin V/propidium iodide staining based FACS analysis", "format": "functional, cell-based"}, "MV4-11 [15]": {"tested_on": "MV4-11", "assay": "Antiproliferative activity against human MV4-11 cells after 72 hrs by MTT assay", "format": "functional, cell-based", "conditions": "MV4-11, 72 h"}, "[16]": {"biological_target": "Tyrosine-protein kinase JAK1 (Homo sapiens) (UniProt P23458)", "sequence (P23458 whole entry)": "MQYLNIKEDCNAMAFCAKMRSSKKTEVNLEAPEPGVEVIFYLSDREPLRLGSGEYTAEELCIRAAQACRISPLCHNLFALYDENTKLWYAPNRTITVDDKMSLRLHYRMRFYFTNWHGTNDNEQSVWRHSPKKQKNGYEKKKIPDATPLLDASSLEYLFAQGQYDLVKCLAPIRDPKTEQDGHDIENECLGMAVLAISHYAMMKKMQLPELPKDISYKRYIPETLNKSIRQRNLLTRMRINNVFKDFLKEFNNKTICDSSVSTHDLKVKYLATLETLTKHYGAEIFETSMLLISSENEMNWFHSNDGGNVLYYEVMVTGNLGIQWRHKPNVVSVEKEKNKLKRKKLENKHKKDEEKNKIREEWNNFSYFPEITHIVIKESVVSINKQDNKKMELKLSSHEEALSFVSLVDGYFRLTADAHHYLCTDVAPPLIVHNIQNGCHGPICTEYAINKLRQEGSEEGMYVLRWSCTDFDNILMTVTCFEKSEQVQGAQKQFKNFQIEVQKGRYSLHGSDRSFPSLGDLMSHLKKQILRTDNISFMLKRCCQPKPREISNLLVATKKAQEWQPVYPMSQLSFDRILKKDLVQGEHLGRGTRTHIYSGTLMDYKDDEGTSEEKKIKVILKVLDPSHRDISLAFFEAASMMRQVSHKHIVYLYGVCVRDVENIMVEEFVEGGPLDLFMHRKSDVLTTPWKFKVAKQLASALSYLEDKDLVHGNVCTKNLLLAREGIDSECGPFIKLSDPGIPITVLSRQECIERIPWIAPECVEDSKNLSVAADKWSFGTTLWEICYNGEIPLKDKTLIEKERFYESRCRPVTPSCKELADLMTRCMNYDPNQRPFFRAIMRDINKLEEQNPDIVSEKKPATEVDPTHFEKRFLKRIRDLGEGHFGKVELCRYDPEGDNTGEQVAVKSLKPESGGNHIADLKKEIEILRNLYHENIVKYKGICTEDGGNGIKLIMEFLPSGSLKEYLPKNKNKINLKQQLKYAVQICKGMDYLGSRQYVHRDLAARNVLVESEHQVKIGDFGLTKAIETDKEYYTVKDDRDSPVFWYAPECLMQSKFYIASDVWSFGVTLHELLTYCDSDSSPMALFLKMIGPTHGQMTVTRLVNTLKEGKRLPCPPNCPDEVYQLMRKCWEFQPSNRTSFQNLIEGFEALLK", "assay": "Inhibition of human JAK1 expressed in mammalian or bacterial system assessed as remaining enzyme activity at 1 uM relative to untreated control"}, "MV4-11 [17]": {"tested_on": "MV4-11", "assay": "Cell cycle arrest in human MV4-11 cells assessed as accumulation at G2 phase at 1000 nM after 48 hrs by PI/RNase staining based FACS analysis (reference value: 13.95%)", "format": "functional"}, "MV4-11 [18]": {"tested_on": "MV4-11", "assay": "Induction of apoptosis in human MV4-11 cells assessed as late apoptotic cells at 1 nM after 48 hrs by annexin V/propidium iodide staining based FACS analysis (reference value: 3.01%)", "format": "functional"}, "MV4-11 [19]": {"tested_on": "MV4-11", "assay": "Induction of apoptosis in human MV4-11 cells assessed as late apoptotic cells at 10000 nM after 48 hrs by annexin V/propidium iodide staining based FACS analysis (reference value: 3.01%)", "format": "functional"}, "MV4-11 [20]": {"tested_on": "MV4-11", "assay": "Induction of apoptosis in human MV4-11 cells assessed as late apoptotic cells at 1000 nM after 48 hrs by annexin V/propidium iodide staining based FACS analysis (reference value: 3.01%)", "format": "functional"}}, "note": "Calls of active or inactive are those of the source. No cut-off for these calls is given here.", "data": [{"smiles": "Cc1cc(Nc2ncc3ncc(=O)n(-c4ccc(N)cc4)c3n2)ccc1N1CCN(C)CC1", "values": [{"measurement": "Cmax", "setting": "[1]", "value": 41, "unit": "ng/mL"}, {"measurement": "IC50", "setting": "MOLT-4", "value": 2120, "unit": "nM"}, {"measurement": "Activity", "setting": "[2]", "value": "< 1", "unit": "%"}, {"measurement": "Activity", "setting": "MV4-11 [3]", "value": 0.01, "unit": "%"}, {"measurement": "Activity", "setting": "[4]", "value": "< 1", "unit": "%"}, {"measurement": "IC50", "setting": "RS4-11", "value": 925, "unit": "nM"}, {"measurement": "Vd", "setting": "[5]", "value": 27.7, "unit": "L/kg"}, {"measurement": "Kd", "setting": "[6]", "value": 2, "unit": "nM"}, {"measurement": "bioavailability", "setting": "[7]", "value": 26.4, "unit": "%"}, {"measurement": "Activity", "setting": "MV4-11 [8]", "value": "Active"}, {"measurement": "Activity", "setting": "[9]", "value": "< 1", "unit": "%"}, {"measurement": "IC50", "setting": "NCI-H146", "value": "> 10000", "unit": "nM"}, {"measurement": "Activity", "setting": "MV4-11 [10]", "value": 70.2, "unit": "%"}, {"measurement": "viability at 0.1 µM", "setting": "MV4-11 [11]", "value": 60.3, "unit": "%"}, {"measurement": "IC50", "setting": "NCI-H1975", "value": 4460, "unit": "nM"}, {"measurement": "IC50", "setting": "MCF7", "value": "> 10000", "unit": "nM"}, {"measurement": "Activity", "setting": "MV4-11 [12]", "value": "Active"}, {"measurement": "Kd", "setting": "[13]", "value": 79, "unit": "nM"}, {"measurement": "Activity", "setting": "MV4-11 [14]", "value": "Dose-dependent effect"}, {"measurement": "IC50", "setting": "MV4-11 [15]", "value": 51, "unit": "nM"}, {"measurement": "Activity", "setting": "[16]", "value": "< 1", "unit": "%"}, {"measurement": "Activity", "setting": "MV4-11 [17]", "value": 0, "unit": "%"}, {"measurement": "Activity", "setting": "MV4-11 [18]", "value": 3.49, "unit": "%"}, {"measurement": "Activity", "setting": "MV4-11 [19]", "value": 31.3, "unit": "%"}, {"measurement": "Activity", "setting": "MV4-11 [20]", "value": 34.3, "unit": "%"}]}]}
